Results reported in PMC12176262 (The Febs Journal, 2025).
Read-outs that look alike come from different tables or passages of the source.

T1: MCM6 winged-helix domain (WHD) C721S mutant, residues 708-821 (human, UniProt Q14566 708-821, C721S)
T1 sequence (looked up): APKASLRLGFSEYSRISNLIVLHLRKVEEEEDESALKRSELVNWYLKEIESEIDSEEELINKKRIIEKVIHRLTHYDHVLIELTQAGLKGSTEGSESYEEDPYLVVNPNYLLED


Columns and labels:
MCM6 = conditions: ref [56], cited from earlier work
[1] = molecular target: T1, MCM6 winged-helix domain (WHD) C721S …; assay: fluorescence polarisation

Row | Molecule | interaction with MCM6 (MCM6; both MBD-C and D regions mutated) | interaction with MCM6 (MCM6; either MBD-C or D regions deleted) | fold, competition of MBD-C against FITC-MBD-C relative to FITC-MBD-D [1] [fold]
1 | Bloom syndrome helicase [BLM] | weakened the interaction | do not interact | –
2 | WLSSDVICI (peptide, UniProt P54132 230-238, looked up) [BLM MCM6 binding domain C peptide (BLM 230-238), unlabeled] | – | – | 1.7
